Marks after values point to notes of the source that are not given here.
Columns and labels:
[1] = tested on: total cellular cholesterol; assay: Cellular cholesterol measurement (cholesterol oxidase fluorimetric assay); assay type: cell-based; details: 10 to 20 mM for 1 hr at 37° C, then washing
Procedure: Cellular cholesterol was measured with a sensitive cholesterol oxidase-based fluorimetric assay (Amplex Red Cholesterol Kit) from Molecular Probes (Eugene Oreg.). Cholesterol content of cells was normalized to total cellular protein.
The role of lipid rafts in the HIV-1 fusion process was examined by treating CD4+HIV-susceptible target cells with 2-OH-βCD to deplete membrane cholesterol and disperse lipid rafts.

HIV-1RF = assay: Free-virus mediated syncytium assay (fusion from without); assay type: cell-based; details: MT2, SupT1, PM1; HIV-1RF >500 ng/ml p24, 3 hr at 37° C
Procedure: Syncytium assays were carried out essentially as previously described (Hildreth and Orentas, supra, 1989). Briefly, cell lines or PHA blasts were treated with 20 mM 2-OH-βCD in RPMI 1640 or medium alone for 1 hr at 37° C. before washing twice with PBS. The treated cells were then mixed with HIV-1 infected cells, each at density of 2×10^6/ml, in cRPMI and incubated at 37° C. Syncytia were scored and photographed 3 to 6 hr after mixing. For free-virus mediated syncytium assays (“fusion from without”), HIV-1RF from infected PM1 culture supernatants were clarified by 0.45 Tm filtration (p24 concentration greater than 500 ng/ml). 2-OH-βCD-treated and non-treated cell lines were added to the virus preparations and incubated at 37° C. for 3 hr before counting syncytia.
The effect of cholesterol depletion on virus-cell fusion (“fusion from without”) was also determined.

CD4 = assay: Flow cytometry of CD4 surface expression; assay type: cell-based
Procedure: (§1) Flow cytometry was performed as previously described (Orentas and Hildreth, supra, 1993). Briefly, 2×10^5 2-OH-βCD treated or untreated cells in 100 μl PBS containing 5% normal goat serum (NGS) were added to 100 μl of MAb (1-5 μg) and incubated 30 min on ice. In comparative experiments we prefixed the cells with 2% paraformaldehyde in PBS immediately after 2-OH-βCD treatment. Cells were washed with PBS, resuspended in 100 μl of PBS, 5% NGS containing 2 Tg of FITC conjugated-goat anti-mouse IgG (FITC-GAM) and incubated 1 h on ice. Cells were then washed with PBS and fixed with 2% paraformaldehyde followed by analysis on an EPICS Profile II flow cytometer.
(§2) Cholesterol depletion also promoted CXCR4 down-modulation by MAb-induced internalization. A possible explanation for the inhibition of syncytium formation by cholesterol depletion as described above is that CD4, CRs, or both are lost from the cell surface, for example, by extrusion from the membrane in vesicles after loss of cholesterol, or they could be internalized. To explore these possibilities, βCD treated cells were examined for expression of HIV receptors by flow cytometry. […] In contrast, cell surface expression of CXCR4 was reduced by 50% or more in all of the cells after 2-OH-βCD treatment (Table 1).
In order to determine whether the loss of CXCR4 expression was due to MAb-induced internalization, cells were fixed with 2% paraformaldehyde in PBS immediately after 2-OH-βCD treatment and before staining with MAbs for flow cytometry.

CCR5 = assay: Flow cytometry of CCR5 expression on primary T cells; assay type: cell-based; details: primary T cells after treatment (19% before)
Procedure: as §1, §2

[2] = tested on: HIV-1 primary strain 97.099, M-tropic (R5); assay: Primary virus infection assay, isolate 97.099; assay type: cell-based; details: PHA blasts treated with 10 mM; p24 after 6 days
Procedure: Peripheral blood mononuclear cells (PBMCS) were isolated by Ficoll-Hypaque centrifugation from buffy coats obtained from the Johns Hopkins Hemapheresis Center. Cells were stimulated for 3 days with 3 Tg/ml PHA, washed with iRPMI, and treated with 10 mM 2-OH-βCD in cRPMI for 1 hr. Cells were then washed twice with iRPMI and resuspended in cRPMI (1×10^6/ml) supplemented with 50 U/ml IL-2 and containing primary HIV-1 strains at 20 ng/ml p24. Cells were incubated with virus for 24 hr at 37° C. before washing twice with iRPMI. Cells were then resuspended in cRPMI supplemented with 50 U/ml IL-2 and cultured for 6 days at 37° C. Supernatants were collected and p24 was quantitated by standard p24 ELISA.
βCD treatment blocks HIV-1 virus infection. HIV-1 can spread in cell cultures without necessarily exerting cytopathic effects. […] To test the effects of cholesterol depletion on HIV-1 infection of primary T cells by free virus, PHA blasts were treated with 10 mM 2-OH-βCD or medium alone, then were exposed to HIV-1 for 2 hr before washing to remove input virus. Viability and growth of the PHA blasts was not affected by treatment with the βCD under the conditions used. P24 release was measured after an addition 6 days in culture. Two primary strains of HIV-1, 97.099 and 97.534, M-tropic (R5) and dual-tropic (X4R5), respectively, were tested.

HIV-1Ba-L-infected HuPBL = assay: Vaginal transmission of cell-associated HIV-1 in HuPBL-SCID mice; assay type: in vivo; details: for Number of mice from which HIV-1 was cultured/Number of mice exposed to HIV-1: P < 0.01
Procedure: The mice were treated subcutaneously with 2.5 mg progestin (Depo-Provera® progestin; Upjohn Pharmaceuticals; Kalamazoo Mich.), on the same day as administration of 5×10^7 unstimulated HuPBMC intraperitoneally in 1 ml PBS. Seven days following progestin treatment and reconstitution of the SCID mice with HuPBMC, the mice were anesthetized and administered pelleted, cell-free HIV-1Ba-L (up to […]), supernatant fluids from HIV-1Ba-L-infected HuPBL, HIV-1Ba-L-infected HuPBL, or HIV-1MN-infected HuPBL (1×10^6/mouse). In the βCD experiments, the mice received 2-OH-βCD (3% w/v in PBS) 5 min prior to receiving 1×10^6 HIV-1Ba-L-infected HuPBL, 1×10^6 HIV-1Ba-L-infected HuPBL pre-incubated with 3% 2-OH-βCD, or 1×10^6 HIV-1Ba-L-infected HuPBL suspended in PBS.
Mice remained anesthetized for 5 minutes following intravaginal inoculation by pipette. Extreme care was taken to avoid causing trauma to vaginal tissues. Two weeks later the mice were euthanized and peritoneal cells were recovered by lavage with cold PBS. The cells recovered by lavage (of both murine and human origin) were assayed by DNA-PCR for human β-globin to determine the presence of human cells from the peritoneum and for HIV-1 infection by co-culture with PHA-stimulated HuPBMC.
The ability of a βCD to inhibit vaginal transmission of cell-associated HIV-1 was examined. Reconstituted HuPBL-SCID mice were challenged intravaginally with 1×10^6 PBMC infected with HIVBa-L after receiving progesterone subcutaneously and HuPBMC intraperitoneally. For two of the experimental groups the HIV-1 infected PBMC were pre-incubated in either 20 Tl PBS or 2-OH-βCD (3% w/v) before the mixture was inoculated intravaginally.

Which results are given for “2-hydroxypropyl-β-cyclodextrin [2-OH-βCD]”?
Depletion of total cellular cholesterol [1]: greater than 70%; Syncytium formation on exposure to free virus (HIV-1RF): no syncytium formation; CD4 (MCF) (CD4; H9, 20 mM, fixed with 2% paraformaldehyde immediately after treatment): 50 MCF; CD4 (MCF) (CD4; H9 cells, 20 mM, not fixed before staining): 20.9 MCF; CD4 (MCF) (CD4; MT2 cells, 20 mM, not fixed before staining): 62.2 MCF; CD4 expression after treatment (CD4; PHA blasts or any of the cell lines tested): did not change; CD4 (MCF) (CD4; PM1, 20 mM, fixed with 2% paraformaldehyde immediately after treatment): 129 MCF; CD4 (MCF) (CD4; PM1 cells, 20 mM, not fixed before staining): 85.9 MCF; CD4 (MCF) (CD4; SupT1, 20 mM, fixed with 2% paraformaldehyde immediately after treatment): 213 MCF; CD4 (MCF) (CD4; SupT1 cells, 20 mM, not fixed before staining): 188.3 MCF; CD4 expression on the cell surface (CD4; cells fixed immediately after treatment, before MAb staining): remained unchanged; CCR5 expression, cells staining positive (CCR5): 8%; Infection of PHA blasts by HIV isolate 97.099 (p24 release) [2]: completely inhibited; Number of mice from which HIV-1 was cultured/Number of mice exposed to HIV-1 (HIV-1Ba-L-infected HuPBL; 3% w/v intravaginally 5 min prior to infected HuPBMC challenge): 1/11*; Number of mice from which HIV-1 was cultured/Number of mice exposed to HIV-1 (HIV-1Ba-L-infected HuPBL; 3% w/v premixed with HIV-infected HuPBMC, intravaginal): 2/16*; Cell-associated HIV-1 transmission by the vaginal route (HIV-1Ba-L-infected HuPBL; 3% w/v, even when administered prior to infected PBMC): significantly inhibited

Reference: patent US7589080B2, “β-cyclodextrin compositions, and use to prevent transmission of sexually transmitted diseases” (priority 2000, dated 2009)
